From article PMC5933747 (PLoS ONE, 2018) come the findings set out here.

pIC50: −log10 of the molar value. Like-named read-outs stand apart in the source and are kept apart here. Some results are limits rather than exact numbers.

Holding throughout (type): cell-based
In one data set the target is human NaV1.5 (Homo sapiens, UniProt Q14524). The data set is described as follows: IonWorks Quattro (IWQ) electrophysiology, human NaV1.5.
A further data set concerns the target human NaV1.4 (Homo sapiens, UniProt P35499). Briefly: IonWorks Quattro (IWQ) electrophysiology, human NaV1.4. (The patch-clamp technique gives a direct electrical read-out from membranes.)
A further data set has as its target human NaV1.7 (Homo sapiens, UniProt Q15858). The data set is described as follows: IonWorks Quattro (IWQ) electrophysiology, human NaV1.7.
Setting [1] is: read-out: Ala mutant IWQ IC50 NaV1.5.
Setting [2] is: read-out: Ala mutant IWQ IC50 NaV1.4.
Setting [3] is: read-out: Ala mutant IWQ IC50 NaV1.7.
The mark [4] stands for this setting: read-out: Glu mutant IWQ IC50 NaV1.5.
Where [5] appears, read: read-out: Glu mutant IWQ IC50 NaV1.4.
Where [6] appears, read: read-out: Glu mutant IWQ IC50 NaV1.7.

Sequence of human NaV1.4 (P35499 whole entry): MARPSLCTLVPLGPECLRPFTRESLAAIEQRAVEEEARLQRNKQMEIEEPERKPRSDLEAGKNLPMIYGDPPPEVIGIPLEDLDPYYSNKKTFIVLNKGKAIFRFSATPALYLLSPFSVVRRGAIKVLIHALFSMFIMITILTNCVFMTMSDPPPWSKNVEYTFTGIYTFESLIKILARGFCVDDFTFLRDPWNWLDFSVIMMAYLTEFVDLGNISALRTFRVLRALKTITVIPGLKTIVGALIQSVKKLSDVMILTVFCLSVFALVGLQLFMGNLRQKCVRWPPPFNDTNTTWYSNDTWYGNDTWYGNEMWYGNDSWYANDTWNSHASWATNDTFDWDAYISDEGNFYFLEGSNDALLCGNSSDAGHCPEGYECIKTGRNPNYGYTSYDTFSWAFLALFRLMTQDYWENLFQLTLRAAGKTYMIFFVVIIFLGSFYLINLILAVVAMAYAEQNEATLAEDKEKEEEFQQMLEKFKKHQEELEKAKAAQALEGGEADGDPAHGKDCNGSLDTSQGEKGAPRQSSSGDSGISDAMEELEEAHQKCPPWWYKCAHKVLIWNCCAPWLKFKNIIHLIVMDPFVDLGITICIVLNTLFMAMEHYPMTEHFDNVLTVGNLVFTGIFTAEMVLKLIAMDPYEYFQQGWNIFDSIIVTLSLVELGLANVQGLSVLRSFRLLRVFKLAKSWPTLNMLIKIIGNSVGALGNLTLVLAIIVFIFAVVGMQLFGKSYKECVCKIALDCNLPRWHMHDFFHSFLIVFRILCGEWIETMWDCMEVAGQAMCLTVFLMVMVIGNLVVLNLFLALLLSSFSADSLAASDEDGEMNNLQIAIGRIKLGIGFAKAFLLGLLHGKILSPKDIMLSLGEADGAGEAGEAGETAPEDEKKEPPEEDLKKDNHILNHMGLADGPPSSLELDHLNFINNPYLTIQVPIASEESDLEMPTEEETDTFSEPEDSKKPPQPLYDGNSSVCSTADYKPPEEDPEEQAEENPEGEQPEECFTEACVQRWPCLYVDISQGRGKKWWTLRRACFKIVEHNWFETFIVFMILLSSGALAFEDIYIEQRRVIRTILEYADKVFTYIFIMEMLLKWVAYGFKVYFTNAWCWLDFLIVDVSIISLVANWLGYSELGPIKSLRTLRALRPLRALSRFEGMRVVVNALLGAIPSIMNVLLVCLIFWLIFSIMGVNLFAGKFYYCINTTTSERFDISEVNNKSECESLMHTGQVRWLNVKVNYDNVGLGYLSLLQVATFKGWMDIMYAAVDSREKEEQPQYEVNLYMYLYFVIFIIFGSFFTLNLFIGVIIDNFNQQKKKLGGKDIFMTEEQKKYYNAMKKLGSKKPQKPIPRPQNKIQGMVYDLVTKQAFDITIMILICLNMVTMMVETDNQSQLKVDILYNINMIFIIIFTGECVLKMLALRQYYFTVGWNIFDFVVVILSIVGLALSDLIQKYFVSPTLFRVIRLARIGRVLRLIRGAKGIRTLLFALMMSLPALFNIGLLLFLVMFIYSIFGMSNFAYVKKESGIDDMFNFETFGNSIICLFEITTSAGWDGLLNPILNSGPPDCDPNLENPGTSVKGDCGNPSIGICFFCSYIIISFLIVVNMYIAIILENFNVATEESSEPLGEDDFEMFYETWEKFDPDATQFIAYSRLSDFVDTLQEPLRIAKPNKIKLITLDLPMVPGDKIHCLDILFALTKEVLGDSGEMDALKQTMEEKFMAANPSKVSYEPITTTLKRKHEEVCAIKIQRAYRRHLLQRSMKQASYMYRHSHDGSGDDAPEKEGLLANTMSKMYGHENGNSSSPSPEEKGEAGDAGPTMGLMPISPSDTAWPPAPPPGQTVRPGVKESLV
Sequence of human NaV1.7 (Q15858 whole entry): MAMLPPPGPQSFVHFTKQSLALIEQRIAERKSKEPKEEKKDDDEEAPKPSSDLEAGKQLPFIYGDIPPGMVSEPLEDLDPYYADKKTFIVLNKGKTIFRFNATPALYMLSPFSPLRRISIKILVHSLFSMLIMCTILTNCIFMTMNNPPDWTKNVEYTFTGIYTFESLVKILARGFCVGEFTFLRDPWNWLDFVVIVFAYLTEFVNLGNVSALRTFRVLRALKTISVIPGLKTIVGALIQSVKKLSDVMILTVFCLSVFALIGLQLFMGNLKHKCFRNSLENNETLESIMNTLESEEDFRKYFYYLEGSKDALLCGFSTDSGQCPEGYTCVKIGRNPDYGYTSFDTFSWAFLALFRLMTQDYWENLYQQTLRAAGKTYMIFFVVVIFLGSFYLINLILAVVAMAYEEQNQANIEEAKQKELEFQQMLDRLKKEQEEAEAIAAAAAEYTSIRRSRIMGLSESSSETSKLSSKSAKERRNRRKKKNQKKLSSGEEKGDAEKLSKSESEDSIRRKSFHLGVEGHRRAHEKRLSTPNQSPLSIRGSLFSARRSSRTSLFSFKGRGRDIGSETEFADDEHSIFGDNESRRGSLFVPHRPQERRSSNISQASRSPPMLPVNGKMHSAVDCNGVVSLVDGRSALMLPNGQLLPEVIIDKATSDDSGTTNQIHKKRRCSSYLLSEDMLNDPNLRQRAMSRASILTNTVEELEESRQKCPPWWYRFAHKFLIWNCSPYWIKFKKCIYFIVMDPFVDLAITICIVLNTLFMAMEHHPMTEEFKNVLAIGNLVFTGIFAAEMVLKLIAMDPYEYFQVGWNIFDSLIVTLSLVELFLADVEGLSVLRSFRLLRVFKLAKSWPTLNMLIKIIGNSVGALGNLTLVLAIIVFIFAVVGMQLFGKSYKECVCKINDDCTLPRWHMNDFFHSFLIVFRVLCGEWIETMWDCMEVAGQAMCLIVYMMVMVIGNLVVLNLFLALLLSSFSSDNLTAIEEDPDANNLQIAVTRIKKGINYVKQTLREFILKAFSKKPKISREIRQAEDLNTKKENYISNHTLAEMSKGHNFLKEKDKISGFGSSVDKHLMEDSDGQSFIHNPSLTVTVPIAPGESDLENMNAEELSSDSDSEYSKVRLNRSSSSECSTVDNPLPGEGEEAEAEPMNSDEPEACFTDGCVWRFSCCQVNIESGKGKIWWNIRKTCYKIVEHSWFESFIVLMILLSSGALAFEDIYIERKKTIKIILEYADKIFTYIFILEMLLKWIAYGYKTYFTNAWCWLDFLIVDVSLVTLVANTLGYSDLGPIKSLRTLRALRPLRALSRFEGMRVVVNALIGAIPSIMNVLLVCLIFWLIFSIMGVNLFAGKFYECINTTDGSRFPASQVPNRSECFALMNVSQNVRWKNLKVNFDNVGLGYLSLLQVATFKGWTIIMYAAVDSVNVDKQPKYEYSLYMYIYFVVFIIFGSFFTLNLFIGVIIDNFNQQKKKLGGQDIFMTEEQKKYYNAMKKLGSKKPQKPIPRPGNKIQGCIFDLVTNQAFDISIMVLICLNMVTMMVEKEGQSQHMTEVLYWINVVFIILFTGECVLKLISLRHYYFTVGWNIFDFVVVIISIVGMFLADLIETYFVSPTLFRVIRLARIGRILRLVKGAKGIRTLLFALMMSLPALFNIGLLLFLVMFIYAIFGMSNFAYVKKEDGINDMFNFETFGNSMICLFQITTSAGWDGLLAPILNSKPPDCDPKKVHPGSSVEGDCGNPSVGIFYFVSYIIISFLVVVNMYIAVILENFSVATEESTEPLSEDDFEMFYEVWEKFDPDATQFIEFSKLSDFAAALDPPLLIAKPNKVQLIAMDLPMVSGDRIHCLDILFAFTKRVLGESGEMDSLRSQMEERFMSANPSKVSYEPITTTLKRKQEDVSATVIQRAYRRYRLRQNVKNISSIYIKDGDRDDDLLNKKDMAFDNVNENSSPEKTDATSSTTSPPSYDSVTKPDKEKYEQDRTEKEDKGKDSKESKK

Turning to `CC[C@H](C)[C@H](NC(=O)[C@@H](NC(=O)[C@H](CCCCN)NC(=O)[C@H](C)NC(=O)[C@@H]1CSSC[C@@H]2NC(=O)[C@H](C)NC(=O)[C@H](CCCNC(=N)N)NC(=O)[C@H](CCCCN)NC(=O)[C@H](CO)NC(=O)[C@H](CC(=O)O)NC(=O)[C@@H]3CSSC[C@H](NC(=O)[C@H](CCCNC(=N)N)NC(=O)[C@H](CC(C)C)NC(=O)CNC(=O)[C@H](CCC(=O)O)NC(=O)[C@H](CSSC[C@H](NC(=O)[C@@H](N)Cc4ccc(O)cc4)C(=O)N[C@@H](CCC(N)=O)C(=O)N[C@@H](CCCCN)C(=O)N[C@@H](Cc4c[nH]c5ccccc45)C(=O)N[C@@H](CCSC)C(=O)N[C@@H](Cc4c[nH]c5ccccc45)C(=O)N[C@@H]([C@@H](C)O)C(=O)N3)NC2=O)C(=O)N[C@@H](CCCCN)C(=O)N[C@@H](CC(C)C)C(=O)N[C@@H](Cc2c[nH]c3ccccc23)C(=O)N1)[C@@H](C)CC)C(N)=O` [R26 Ala mutant], the pIC50 (commonly the negative decadic logarithm of the IC50, by convention in mol/L) on human NaV1.5 (setting [1]) was less than 5.00; on human NaV1.4 (setting [2]), less than 5.00; on human NaV1.7 (setting [3]) it was 5.62.
Take `CC[C@H](C)[C@H](NC(=O)[C@@H](NC(=O)[C@H](CCCCN)NC(=O)[C@H](CCCNC(=N)N)NC(=O)[C@@H]1CSSC[C@@H]2NC(=O)[C@H](C)NC(=O)[C@H](CCCNC(=N)N)NC(=O)[C@H](CCCCN)NC(=O)[C@H](CO)NC(=O)[C@H](CC(=O)O)NC(=O)[C@@H]3CSSC[C@H](NC(=O)[C@H](CCCNC(=N)N)NC(=O)[C@H](C)NC(=O)CNC(=O)[C@H](CCC(=O)O)NC(=O)[C@H](CSSC[C@H](NC(=O)[C@@H](N)Cc4ccc(O)cc4)C(=O)N[C@@H](CCC(N)=O)C(=O)N[C@@H](CCCCN)C(=O)N[C@@H](Cc4c[nH]c5ccccc45)C(=O)N[C@@H](CCSC)C(=O)N[C@@H](Cc4c[nH]c5ccccc45)C(=O)N[C@@H]([C@@H](C)O)C(=O)N3)NC2=O)C(=O)N[C@@H](CCCCN)C(=O)N[C@@H](CC(C)C)C(=O)N[C@@H](Cc2c[nH]c3ccccc23)C(=O)N1)[C@@H](C)CC)C(N)=O` [L19 Ala mutant]: the pIC50 on human NaV1.5 (setting [1]) was less than 5.00; at human NaV1.4 (setting [2]), less than 5.00; at human NaV1.7 (setting [3]) it was 5.55.
Regarding `CC[C@H](C)[C@H](NC(=O)[C@@H](NC(=O)[C@H](CCCCN)NC(=O)[C@H](CCC(=O)O)NC(=O)[C@@H]1CSSC[C@@H]2NC(=O)[C@H](C)NC(=O)[C@H](CCCNC(=N)N)NC(=O)[C@H](CCCCN)NC(=O)[C@H](CO)NC(=O)[C@H](CC(=O)O)NC(=O)[C@@H]3CSSC[C@H](NC(=O)[C@H](CCCNC(=N)N)NC(=O)[C@H](CC(C)C)NC(=O)CNC(=O)[C@H](CCC(=O)O)NC(=O)[C@H](CSSC[C@H](NC(=O)[C@@H](N)Cc4ccc(O)cc4)C(=O)N[C@@H](CCC(N)=O)C(=O)N[C@@H](CCCCN)C(=O)N[C@@H](Cc4c[nH]c5ccccc45)C(=O)N[C@@H](CCSC)C(=O)N[C@@H](Cc4c[nH]c5ccccc45)C(=O)N[C@@H]([C@@H](C)O)C(=O)N3)NC2=O)C(=O)N[C@@H](CCCCN)C(=O)N[C@@H](CC(C)C)C(=O)N[C@@H](Cc2c[nH]c3ccccc23)C(=O)N1)[C@@H](C)CC)C(N)=O` [R26 Glu mutant], the negative logarithm of the IC50 (pIC50) at human NaV1.5 (setting [4]), on human NaV1.4 (setting [5]) and at human NaV1.7 (setting [6]) was less than 5.00 each time.
Take `CC[C@H](C)[C@H](NC(=O)[C@@H](NC(=O)[C@H](CCCCN)NC(=O)[C@H](CCCNC(=N)N)NC(=O)[C@@H]1CSSC[C@@H]2NC(=O)[C@H](C)NC(=O)[C@H](CCCNC(=N)N)NC(=O)[C@H](CCCCN)NC(=O)[C@H](CO)NC(=O)[C@H](CC(=O)O)NC(=O)[C@@H]3CSSC[C@H](NC(=O)[C@H](CCCNC(=N)N)NC(=O)[C@H](CCC(=O)O)NC(=O)CNC(=O)[C@H](CCC(=O)O)NC(=O)[C@H](CSSC[C@H](NC(=O)[C@@H](N)Cc4ccc(O)cc4)C(=O)N[C@@H](CCC(N)=O)C(=O)N[C@@H](CCCCN)C(=O)N[C@@H](Cc4c[nH]c5ccccc45)C(=O)N[C@@H](CCSC)C(=O)N[C@@H](Cc4c[nH]c5ccccc45)C(=O)N[C@@H]([C@@H](C)O)C(=O)N3)NC2=O)C(=O)N[C@@H](CCCCN)C(=O)N[C@@H](CC(C)C)C(=O)N[C@@H](Cc2c[nH]c3ccccc23)C(=O)N1)[C@@H](C)CC)C(N)=O` [L19 Glu mutant]: the pIC50 on human NaV1.5 (setting [4]), on human NaV1.4 (setting [5]) and at human NaV1.7 (setting [6]) was less than 5.00 each time.
In the case of `CC[C@H](C)[C@H](NC(=O)[C@@H](NC(=O)[C@H](CCCCN)NC(=O)[C@H](CCCNC(=N)N)NC(=O)[C@@H]1CSSC[C@@H]2NC(=O)[C@H](C)NC(=O)[C@H](CCCNC(=N)N)NC(=O)[C@H](CCCCN)NC(=O)[C@H](CO)NC(=O)[C@H](CC(=O)O)NC(=O)[C@@H]3CSSC[C@H](NC(=O)[C@H](CCCNC(=N)N)NC(=O)[C@H](CC(C)C)NC(=O)CNC(=O)[C@H](CCC(=O)O)NC(=O)[C@H](CSSC[C@H](NC(=O)[C@@H](N)Cc4ccc(O)cc4)C(=O)N[C@@H](CCC(N)=O)C(=O)N[C@@H](CCC(=O)O)C(=O)N[C@@H](Cc4c[nH]c5ccccc45)C(=O)N[C@@H](CCSC)C(=O)N[C@@H](Cc4c[nH]c5ccccc45)C(=O)N[C@@H]([C@@H](C)O)C(=O)N3)NC2=O)C(=O)N[C@@H](CCCCN)C(=O)N[C@@H](CC(C)C)C(=O)N[C@@H](Cc2c[nH]c3ccccc23)C(=O)N1)[C@@H](C)CC)C(N)=O` [K4 Glu mutant], the results for the pIC50 on human NaV1.5 (setting [4]), on human NaV1.4 (setting [5]) and at human NaV1.7 (setting [6]) were less than 5.00, 6.01 and 6.97, respectively.
As for `CC[C@H](C)[C@H](NC(=O)[C@@H](NC(=O)[C@H](CCCCN)NC(=O)[C@H](CCCNC(=N)N)NC(=O)[C@@H]1CSSC[C@@H]2NC(=O)[C@H](C)NC(=O)[C@H](CCCNC(=N)N)NC(=O)[C@H](CCCCN)NC(=O)[C@H](CO)NC(=O)[C@H](CC(=O)O)NC(=O)[C@@H]3CSSC[C@H](NC(=O)[C@H](CCC(=O)O)NC(=O)[C@H](CC(C)C)NC(=O)CNC(=O)[C@H](CCC(=O)O)NC(=O)[C@H](CSSC[C@H](NC(=O)[C@@H](N)Cc4ccc(O)cc4)C(=O)N[C@@H](CCC(N)=O)C(=O)N[C@@H](CCCCN)C(=O)N[C@@H](Cc4c[nH]c5ccccc45)C(=O)N[C@@H](CCSC)C(=O)N[C@@H](Cc4c[nH]c5ccccc45)C(=O)N[C@@H]([C@@H](C)O)C(=O)N3)NC2=O)C(=O)N[C@@H](CCCCN)C(=O)N[C@@H](CC(C)C)C(=O)N[C@@H](Cc2c[nH]c3ccccc23)C(=O)N1)[C@@H](C)CC)C(N)=O` [R20 Glu mutant], the negative logarithm of the IC50 (pIC50) at human NaV1.5 (human, read-out: Glu mutant IWQ IC50 NaV1.5) was less than 5.30; at human NaV1.4 (setting [5]), 5.74; on human NaV1.7 (setting [6]), 6.66.
For the compound `CC[C@H](C)[C@H](NC(=O)[C@@H](NC(=O)[C@H](CCCCN)NC(=O)[C@H](CCCNC(=N)N)NC(=O)[C@@H]1CSSC[C@@H]2NC(=O)[C@H](C)NC(=O)[C@H](CCCNC(=N)N)NC(=O)[C@H](CCCCN)NC(=O)[C@H](CO)NC(=O)[C@H](CC(=O)O)NC(=O)[C@@H]3CSSC[C@H](NC(=O)[C@H](CCCNC(=N)N)NC(=O)[C@H](CC(C)C)NC(=O)CNC(=O)[C@H](CCC(=O)O)NC(=O)[C@H](CSSC[C@H](NC(=O)[C@@H](N)Cc4ccc(O)cc4)C(=O)N[C@@H](CCC(N)=O)C(=O)N[C@@H](CCCCN)C(=O)N[C@@H](CCC(=O)O)C(=O)N[C@@H](CCSC)C(=O)N[C@@H](Cc4c[nH]c5ccccc45)C(=O)N[C@@H]([C@@H](C)O)C(=O)N3)NC2=O)C(=O)N[C@@H](CCCCN)C(=O)N[C@@H](CC(C)C)C(=O)N[C@@H](Cc2c[nH]c3ccccc23)C(=O)N1)[C@@H](C)CC)C(N)=O` [W5 Glu mutant], the negative-log IC50 (pIC50) on human NaV1.5 (setting [4]), on human NaV1.4 (setting [5]) and on human NaV1.7 (setting [6]) was less than 5.00 each time.
Take `CC[C@H](C)[C@H](NC(=O)[C@@H](NC(=O)[C@H](CCCCN)NC(=O)[C@H](CCCNC(=N)N)NC(=O)[C@@H]1CSSC[C@@H]2NC(=O)[C@H](C)NC(=O)[C@H](CCCNC(=N)N)NC(=O)[C@H](CCCCN)NC(=O)[C@H](CO)NC(=O)[C@H](CC(=O)O)NC(=O)[C@@H]3CSSC[C@H](NC(=O)[C@H](CCCNC(=N)N)NC(=O)[C@H](CC(C)C)NC(=O)CNC(=O)[C@H](CCC(=O)O)NC(=O)[C@H](CSSC[C@H](NC(=O)[C@@H](N)Cc4ccc(O)cc4)C(=O)N[C@@H](C)C(=O)N[C@@H](CCCCN)C(=O)N[C@@H](Cc4c[nH]c5ccccc45)C(=O)N[C@@H](CCSC)C(=O)N[C@@H](Cc4c[nH]c5ccccc45)C(=O)N[C@@H]([C@@H](C)O)C(=O)N3)NC2=O)C(=O)N[C@@H](CCCCN)C(=O)N[C@@H](CC(C)C)C(=O)N[C@@H](Cc2c[nH]c3ccccc23)C(=O)N1)[C@@H](C)CC)C(N)=O` [Q3 Ala mutant]: the results for the pIC50 at human NaV1.5 (setting [1]), on human NaV1.4 (setting [2]) and at human NaV1.7 (setting [3]) were less than 5.00, 5.94 and 6.42, respectively.
Turning to `CC[C@H](C)[C@H](NC(=O)[C@@H](NC(=O)[C@H](CCCCN)NC(=O)[C@H](CCCNC(=N)N)NC(=O)[C@@H]1CSSC[C@@H]2NC(=O)[C@H](C)NC(=O)[C@H](CCCNC(=N)N)NC(=O)[C@H](CCCCN)NC(=O)[C@H](CO)NC(=O)[C@H](CC(=O)O)NC(=O)[C@@H]3CSSC[C@H](NC(=O)[C@H](CCCNC(=N)N)NC(=O)[C@H](CC(C)C)NC(=O)CNC(=O)[C@H](CCC(=O)O)NC(=O)[C@H](CSSC[C@H](NC(=O)[C@@H](N)Cc4ccc(O)cc4)C(=O)N[C@@H](CCC(N)=O)C(=O)N[C@@H](CCCCN)C(=O)N[C@@H](Cc4c[nH]c5ccccc45)C(=O)N[C@@H](CCSC)C(=O)N[C@@H](Cc4c[nH]c5ccccc45)C(=O)N[C@@H](CCC(=O)O)C(=O)N3)NC2=O)C(=O)N[C@@H](CCCCN)C(=O)N[C@@H](CC(C)C)C(=O)N[C@@H](Cc2c[nH]c3ccccc23)C(=O)N1)[C@@H](C)CC)C(N)=O` [T8 Glu mutant], the pIC50 on human NaV1.5 (setting [4]) was less than 5.00; at human NaV1.4 (setting [5]), less than 5.00; at human NaV1.7 (setting [6]), 5.41.
